The subject of data set [1] is mice. The experiment in a line: Cook's Pole Climbing Test on mice. As to conditions: PX 100 mg. It counts as in vivo.
Data set [2] concerns healthy young adults. In words: Vigilance Task Test. It counts as in vivo. As to conditions: 200 mg paraxanthine; 5 g BHB; 200 mg paraxanthine and 5 g BHB; baseline and 1-6 hours after supplementation; FIG. 6. From the text: The Vigilance Task Test is another test routinely used in the field, and is used to evaluate a participants ability to sustain attention. The Vigilance Task Test is a sustained attention, reaction timed task test that measures the speed with which participants respond to a visual stimulus. The subjects respond to visual stimuli (e.g., a red dot) by pressing a key as soon as it appears on the computer screen. The light turns on at random, e.g., roughly every couple of seconds or so during the test. The speed of response is measured. Due to the random nature of the test, there is no learning effect. Mean response time is recorded. When running each such tests, subjects are given either paraxanthine+BHB, paraxanthine alone, BHB alone, or a placebo. The dosage amounts are 200 mg paraxanthine and 5 g of BHB, 200 mg of paraxanthine alone, 5 g of BHB alone, or a placebo. The testing is conducted under double blind, placebo controlled conditions. The subjects include 13 healthy young adults (10 male, 3 female), aged 24±5 years; height 170.0±11.8 cm; weight 72.9±19.3 kg.

The test system of data set [3] is healthy young adults. In words: Go/No Go Attention and Inhibitory Control Test. To be noted: 200 mg paraxanthine; 5 g BHB; 200 mg paraxanthine and 5 g BHB; baseline and 1-6 hours after supplementation; FIG. 5. It counts as in vivo. The text has this:
Attention and inhibitory control can be measured using a Go/No Go Test, which is used to measure a participant's capacity for sustained attention and response control. The Go/No Go Test is routinely used in the field, and will be familiar to those of skill in the art. In the Go/No Go Test, participants watch a 2×2 array of squares, and then there is a successive presentation of letters (e.g., either P or R) and the participant responds to a target letter by pressing the corresponding button on a keyboard. The single letter (P or R) is presented in one of the 4 squares for 500 milliseconds, with 1500 milliseconds between subsequent stimuli. For the P-Go condition, participants are asked to press the P key in response to the letter P, and abstain from responding to the letter R. For the R-reversal condition, the participants are asked to respond to the letter R, and abstain when seeing the letter P. Mean response time, as well as percentage of correct answers are recorded. When running each such tests, subjects are given either paraxanthine+BHB, paraxanthine alone, BHB alone, or a placebo. The dosage amounts are 200 mg paraxanthine and 5 g of BHB, 200 mg of paraxanthine alone, 5 g of BHB alone, or a placebo. The testing is conducted under double blind, placebo controlled conditions. […]

The target of data set [4] is cGMP-preferring phosphodiesterase (PDE9) (Homo sapiens, UniProt O76083). As to conditions: cited from earlier work.
The nature of data set [5]: Clinical Stroop Test study. It is filed as in vivo. To be noted: paraxanthine 200 mg; BHB 5 g; paraxanthine 200 mg with BHB 5 g; 6-week period; FIGS. 15A-15C. From the text: The Stroop effect refers to the delay in reaction time between congruent and incongruent stimuli. […] When paired with paraxanthine, the combination provides a synergistic improvement in mental acuity.

For data set [6] the following is noted: in vivo; cited from earlier work.
Data set [7] concerns healthy young adults. In words: Sternberg Test. It counts as in vivo. As to conditions: 200 mg paraxanthine; 5 g BHB; 200 mg paraxanthine and 5 g BHB; letter length 2, 4, 6; FIGS. 9-11. From the text:
The Sternberg Test is a test routinely used in the field to evaluate working memory, and ability to make use of short-term memory. A lower reaction time means that participants can access their working memory faster. The Sternberg Task Test is a widely used paradigm for studying short term/working memory involving cognitive control processes. Participants are asked to remember a short series of letters or other characters and then the participants has to respond if the series of letters or characters is present in a larger series of letters or characters. Reaction time is measured when the remembered short series is both present or absent. Mean response time is recorded. When running each such tests, subjects are given either paraxanthine+BHB, paraxanthine alone, BHB alone, or a placebo. The dosage amounts are 200 mg paraxanthine and 5 g of BHB, 200 mg of paraxanthine alone, 5 g of BHB alone, or a placebo. The testing is conducted under double blind, placebo controlled conditions. The subjects include 13 healthy young adults (10 male, 3 female), aged 24±5 years; height 170.0±11.8 cm; weight 72.9±19.3 kg.

The conditions of data set [8]: metabolite of caffeine, cited from earlier work.
For data set [9] the following is noted: elevated doses; cited from earlier work.
The next data set concerns the target T1, adenosine A1 receptors (Homo sapiens, UniProt P30542).
T1 sequence (P30542 1-326): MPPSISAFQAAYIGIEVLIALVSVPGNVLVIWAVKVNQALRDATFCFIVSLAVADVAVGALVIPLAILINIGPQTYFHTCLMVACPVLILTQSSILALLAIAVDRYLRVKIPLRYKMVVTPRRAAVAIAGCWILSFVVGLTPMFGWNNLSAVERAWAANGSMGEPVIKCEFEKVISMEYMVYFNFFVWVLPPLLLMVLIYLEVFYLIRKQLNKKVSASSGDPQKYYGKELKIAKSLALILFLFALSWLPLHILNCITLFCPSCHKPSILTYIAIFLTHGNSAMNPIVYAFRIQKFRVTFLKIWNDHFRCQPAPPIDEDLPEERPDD
As to conditions: compared with caffeine; cited from earlier work.

For data set [10], the system named is mice. The experiment in a line: Forced Swim Test on mice. It counts as in vivo. To be noted: PX 100 mg.

Consider one compound from patent US12144814B2, “Compositions containing paraxanthine and beta-hydroxybutyrate or precursor for increasing neurological and physiological performance” (priority 2023, dated 2024).

Each structure is given as a SMILES string. “Also recorded” adds a separate entry of the source.

cGMP-preferring phosphodiesterase (PDE9), sequence (O76083 whole entry): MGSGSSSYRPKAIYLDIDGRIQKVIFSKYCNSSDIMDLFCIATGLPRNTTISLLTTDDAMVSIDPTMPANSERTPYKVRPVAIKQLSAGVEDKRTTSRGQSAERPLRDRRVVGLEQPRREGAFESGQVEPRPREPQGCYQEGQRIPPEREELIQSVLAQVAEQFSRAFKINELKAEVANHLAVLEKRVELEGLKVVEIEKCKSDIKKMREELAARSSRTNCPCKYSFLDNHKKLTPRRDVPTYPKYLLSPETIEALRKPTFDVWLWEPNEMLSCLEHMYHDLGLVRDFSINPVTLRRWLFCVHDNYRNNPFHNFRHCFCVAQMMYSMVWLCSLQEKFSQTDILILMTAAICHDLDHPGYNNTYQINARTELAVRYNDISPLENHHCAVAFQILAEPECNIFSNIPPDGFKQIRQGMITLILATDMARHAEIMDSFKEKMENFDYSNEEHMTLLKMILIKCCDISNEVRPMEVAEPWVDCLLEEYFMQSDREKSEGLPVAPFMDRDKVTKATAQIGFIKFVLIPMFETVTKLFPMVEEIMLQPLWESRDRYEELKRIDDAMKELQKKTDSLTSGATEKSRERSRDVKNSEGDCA

Regarding `Cn1c(=O)[nH]c2ncn(C)c2c1=O` [paraxanthine, 1,7-dimethylxanthine], the “No. of Climbing” value with mice [1] was determined as 2.75. The “Vigilance Task Test average response time” value in the data set with healthy young adults [2] is recorded as “faster response times”. The “Go/No Go Test average response time” value in the data set with healthy young adults [3] is on record as “faster response times”. The “inhibition of PDE9” value in data set [4] is on record as “inhibits PDE9; also recorded: selective inhibitor”. Also, in [5], the “Stroop test number of correct answers” value was “some improvement” and the “Stroop test reaction speed” value is reported as “some improvement”. Further, in data set [6], the locomotor activation effects result is “stronger locomotor activation effects than caffeine”. Moreover, the “Sternberg Test mean response time” value in the data set with healthy young adults [7] was “decreased mean response time”. For the same compound, the “share of the methylxanthine metabolic by-products” value in data set [8] (FIG. 2) is reported as “about 84%”. In [8], the “share of caffeine ingested” value is recorded as 70-72%. For the same compound, in [9], the “hypothermia and reduced locomotor activity” value was “no such problems are observed”. In addition, the “binding potency for adenosine A1 receptors” value at adenosine A1 receptors is “higher binding potencies”. In the data set with mice [10], the “Duration of Immobility” value is 5.85 min and the “Duration of mobility/active swimming” value worked out at 24.15 min.
